Where two headings read alike, the source gives them in different places.
Legend:
[1] = test system: L3.6 human pancreatic adeno-carcinoma
Procedure: Pancreatic adenocarcinoma (PA), the fifth most common cause of cancer death in the United States is commonly metastatic and unresectable and is poorly responsive to therapy. […] The in vitro cytotoxicity effect of gemcitabine+/−C6 ceramide versus L3.6 pancreatic cancer cell line were measured using MTT assay. In vivo experiments were performed using SCID/Beige/Taconic male mice, 22-25 g, 6-8 weeks old (Taconic Laboratory, Germantown, N.Y., USA). Mice were inoculated s.c. with 2×106L3.6 PA cells. Four days later mice developed primary tumors and chemotherapy was started. Mice were treated 3 times/week for 4 weeks with i.p. injections of gemcitabine (5.0-10.0-15.0 mg/kg) and C6 ceramide (10.0 mg/kg) or combinations of these drugs. Body weight (BW) and diameters of tumors (TD) were measured every week. Diameters of tumors were used to count the volumes of primary tumors: TV. We also studied percent survival and mean survival time (MST). In these experiments we used the new test: mean rate tumor development (MRTD) which reflects the speed of tumor development and was measured by the formula: MTV/MST.
In vivo experiments utilized SCID/Beige/Taconic male mice inoculated S.C. with 2×106 L3.6 pancreatic cells which were treated 4 days post tumor implant with thrice weekly (3×/wk) intraperitoneal (IP) injections of paclitaxel (P) 3.0 mg/kg, oxaliplatin (OX) 2.5 mg/kg, cisplatin (CP) 2.5 mg/kg, gemcitabine (Gem) 15 mg/kg with or without ceramide 10 mg/kg. Chemotherapy dose levels were based on standardized clinical dosing as modified from in vitro data. […] Maximum tumor volume, tumor weight, body weight and survival were recorded. […] Separate histopathology studies recorded short term effects on tumor necrosis, mitotic index and caspase index.

[2] = test system: L3.6 pancreatic cancer cell line
[3] = dose column 10 mg/kg (gemcitabine or ceramide alone; ceramide 10 mg/kg in combination)

SMILES: CCCCCCCCCCCCC/C=C/[C@@H](O)[C@H](CO)NC(=O)CCCCC [Ceramide, N-hexanoyl-D-sphingosine]
- anti-tumor regression and survival induced by Oxaliplatin and Gemcitabine ([1]; combination therapy): significantly enhanced
- Tumor Size (cc) ([1]; dose column 10 mg/kg): 0.253 cc
- Mean Survival Time [1, 3]: 27.8 ± 10.2 days
- anti tumor effects of co-administered drugs ([1]; with Paclitaxel, Doxorubicin, Cisplatin, Oxaliplatin, Gemcitabine): augmented the anti tumor effects
- effect on cytotoxicity induced by low dose cisplatin and oxaliplatin [2]: parallel effects

SMILES: Nc1ccn([C@@H]2O[C@H](CO)[C@@H](O)C2(F)F)c(=O)n1 [Gemcitabine]
- % Survival @ 3 Weeks ([1]; 3 weeks): 40%
- % Survival @ 6 Weeks ([1]; 6 weeks): 0%
- Tumor Size (cc) ([1]; dose column 5 mg/kg): 0.412 cc
- Mean Survival Time ([1]; dose column 5 mg/kg (gemcitabine; ceramide 10 mg/kg in combination)): 19.6 ± 3.6 days
- Tumor Size (cc) ([1]; dose column 10 mg/kg): 0.376 cc
- Mean Survival Time [1, 3]: 27.8 ± 10.2 days
- Tumor Size (cc) ([1]; dose column 15 mg/kg): 0.439 cc
- Mean Survival Time ([1]; dose column 15 mg/kg (gemcitabine; ceramide 10 mg/kg in combination)): 23.2 ± 5.9 days
- Mean Final Tumor Volume ([1]; i.p. 3x/wk from day 4, paclitaxel 3.0, oxaliplatin 2.5, cisplatin 2.5, gemcitabine 15, ceramide 10 mg/kg, observed 6 weeks, in cm³): 1.10 +/−^
- Mean Survival Time ([1]; i.p. 3x/wk, paclitaxel 3.0, oxaliplatin 2.5, cisplatin 2.5, gemcitabine 15, ceramide 10 mg/kg): 22.8 ± 4.5 days
- Mean Body Weight (g) (Time of Death or Sacrifice) ([1]; time of death or sacrifice): 15.6 g

From patent US8216607B2, “Combination of ceramide and gemcitabine for inducing cell death and uses thereof in treating cancer” (priority 2008, dated 2012)
